Results taken from ChEMBL document CHEMBL3217729, “Sangamides, a new class of cyclophilin-inhibiting host-targeted antivirals for treatment of HCV infection” (Medchemcomm, 2012).
Values after ≈ are worked out from the molar mass of the structure shown.

Columns and labels:
Hepatitis C virus [1] = assay: Antiviral activity against Hepatitis C virus genotype 1b I389luc-ubi-neo/NS3-3'/5.1 subgenomic replicon infected in human Huh5-2 cells after 4 days by luciferase assay; assay type: functional, cell-based, Hepacivirus hominis; details: Huh-5-2, 96 h
[2] = Cytostatic activity against human Huh5-2 cells assessed as decrease in cell proliferation after 3 days by MTS method; assay type: ADME, cell-based, Huh-5-2
[3] = Selectivity index, ratio of CC50 for human Huh5-2 cells to EC50 for Hepatitis C virus genotype 1b I389luc-ubi-neo/NS3-3'/5.1 subgenomic replicon infected in human Huh5-2 cells; assay type: toxicity, cell-based, Huh-5-2; details: read-out: Ratio CC50/EC50
[4] = molecular target: Peptidyl-prolyl cis-trans isomerase A (Homo sapiens, UniProt P62937); assay: Inhibition of recombinant GST-tagged CypA (unknown origin)/HCV Con1 NS5A-His interaction after 16 hrs by ELISA
[5] = Solubility of the compound in phosphate buffered saline at pH 7.4 after 4 hrs by LC-MS/MS analysis
[6] = Half life in human liver microsomes at 1 uM by LC-MS/MS analysis; assay type: ADME
[7] = Half life in human hepatocytes at 1 uM by LC-MS/MS analysis; assay type: ADME, cell-based, Hepatocyte
in vitro = details: mouse, liver microsomes
Description: Half life in mouse liver microsomes at 1 uM by LC-MS/MS analysis

Hepatitis C virus [8] = assay: Antiviral activity against Hepatitis C virus genotype 1b Con1 infected in human Huh7 cells assessed as decrease in subgenomic RNA level after 72 hrs by RT-PCR analysis; assay type: functional, cell-based, Hepacivirus hominis; details: genotype 1b Con1, Huh-7, 72 h
Hepatitis C virus [9] = assay: Antiviral activity against Hepatitis C virus genotype 1a H77 infected in human Huh7 cells assessed as decrease in subgenomic RNA level after 72 hrs by RT-PCR analysis; assay type: functional, cell-based, Hepacivirus hominis; details: genotype 1a H77, Huh-7, 72 h
Hepatitis C virus [10] = assay: Antiviral activity against Hepatitis C virus genotype 2a JFH-1 infected in human Huh7 cells assessed as decrease in subgenomic RNA level after 72 hrs by RT-PCR analysis; assay type: functional, cell-based, Hepacivirus hominis; details: genotype 2a JFH-1, Huh-7, 72 h

Sequence of Peptidyl-prolyl cis-trans isomerase A (P62937 whole entry): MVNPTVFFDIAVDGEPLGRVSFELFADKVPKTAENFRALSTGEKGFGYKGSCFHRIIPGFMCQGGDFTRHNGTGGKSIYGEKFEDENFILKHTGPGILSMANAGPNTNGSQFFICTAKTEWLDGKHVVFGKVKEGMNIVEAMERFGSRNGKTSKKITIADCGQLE

SMILES | EC50 (Hepatitis C virus [1]) | EC90 (Hepatitis C virus [1]) | CC50 at 72 h [2] | selectivity ratio [3] | IC50 [4] | solubility at 4 h [5] | half-life at 1 µM [6] | half-life at 1 µM [7] | half-life at 1 µM (in vitro) | EC50 (Hepatitis C virus [8]) | EC50 (Hepatitis C virus [9]) | EC50 (Hepatitis C virus [10])
CC(=O)CC[C@H]1C(=O)N[C@@H](C(C)C)C(=O)N[C@@H](Cc2cccc(O)c2)C(=O)N2CCCC(N2)C(=O)O[C@H](/C(C)=C/C=C/C(=O)N(C)C)C/C=C/C=C/[C@H](O)[C@H](C)[C@H]1O (some centres undefined) | 349 nM | 62000 nM | > 100000 nM | > 287 | 630 nM | > 100 µM | 48 min | 128 min | 24.7 min |  |  | 
CC(=O)CC[C@H]1C(=O)N[C@@H](C(C)C)C(=O)N[C@@H](Cc2cccc(O)c2)C(=O)N2CCCC(N2)C(=O)O[C@H](/C(C)=C/C=C/C(=O)Nc2cccnc2)C/C=C/C=C/[C@H](O)[C@H](C)[C@H]1O (stereo in doubt) | 2480 nM | 5410 nM | > 100000 nM | > 40 | 460 nM | 18 µM (≈ 15.4 µg/mL) | 7.5 min | 116 min | 3.3 min |  |  | 
CC(=O)CC[C@H]1C(=O)N[C@@H](C(C)C)C(=O)N[C@@H](Cc2cccc(O)c2)C(=O)N2CCCC(N2)C(=O)O[C@H](/C(C)=C/C=C/C(=O)N(C)C2CCCCC2)C/C=C/C=C/[C@H](O)[C@H](C)[C@H]1O (some centres undefined) | 148 nM | 1900 nM | 66000 nM | 446 | 420 nM | 48 µM (≈ 42.1 µg/mL) | 3.3 min | > 240 min | 1.9 min |  |  | 
CC(=O)CC[C@H]1C(=O)N[C@@H](C(C)C)C(=O)N[C@@H](Cc2cccc(O)c2)C(=O)N2CCCC(N2)C(=O)O[C@H](/C(C)=C/C=C/C(=O)N(C)c2ccccn2)C/C=C/C=C/[C@H](O)[C@H](C)[C@H]1O (some centres undefined) | 2010 nM | 11500 nM | > 100000 nM | > 50 | 330 nM | 17 µM (≈ 14.8 µg/mL) | 19.1 min | 150 min | 9.8 min |  |  | 
C=CCNC(=O)/C=C/C=C(\C)[C@@H]1C/C=C/C=C/[C@H](O)[C@H](C)[C@@H](O)[C@@H](CCC(C)=O)C(=O)N[C@@H](C(C)C)C(=O)N[C@@H](Cc2cccc(O)c2)C(=O)N2CCCC(N2)C(=O)O1 (stereo in doubt) | 1600 nM | 8500 nM | 48000 nM | 30 | 360 nM |  | 23.9 min | 139 min | 10.6 min |  |  | 
CC(=O)CC[C@H]1C(=O)N[C@@H](C(C)C)C(=O)N[C@@H](Cc2cccc(O)c2)C(=O)N2CCCC(N2)C(=O)O[C@H](/C(C)=C/C=C/C(=O)Nc2ccncc2)C/C=C/C=C/[C@H](O)[C@H](C)[C@H]1O (some centres undefined) | 8060 nM | 31900 nM | > 100000 nM | > 12.4 | 550 nM | 15 µM (≈ 12.9 µg/mL) | 32.2 min | > 240 min | 15.2 min |  |  | 
CC(=O)CC[C@H]1C(=O)N[C@@H](C(C)C)C(=O)N[C@@H](Cc2cccc(O)c2)C(=O)N2CCCC(N2)C(=O)O[C@H](/C(C)=C/C=C/C(=O)NC(C)C)C/C=C/C=C/[C@H](O)[C@H](C)[C@H]1O (stereo in doubt) | 560 nM | 4600 nM | > 100000 nM | > 179 | 380 nM | 12 µM (≈ 9.86 µg/mL) | 16.9 min | 59 min | 6.4 min |  |  | 
CC(=O)CC[C@H]1C(=O)N[C@@H](C(C)C)C(=O)N[C@@H](Cc2cccc(O)c2)C(=O)N2CCCC(N2)C(=O)O[C@H](/C(C)=C/C=C/C(=O)N(CC(C)C)CC(C)C)C/C=C/C=C/[C@H](O)[C@H](C)[C@H]1O (some centres undefined) | 309 nM | 1100 nM | 2100 nM | 6.8 | 390 nM |  | 21.6 min | 98 min | 2.5 min |  |  | 
CC(=O)CC[C@H]1C(=O)N[C@@H](C(C)C)C(=O)N[C@@H](Cc2cccc(O)c2)C(=O)N2CCCC(N2)C(=O)O[C@H](/C(C)=C/C=C/C(=O)N2CCOCC2)C/C=C/C=C/[C@H](O)[C@H](C)[C@H]1O (some centres undefined) | 1400 nM | 7400 nM |  | > 72 | 330 nM | > 100 µM | 50.3 min | > 240 min | 18 min |  |  | 
CCC[C@H](NC(=O)[C@@H]1[C@H]2CCC[C@H]2CN1C(=O)[C@@H](NC(=O)[C@@H](NC(=O)c1cnccn1)C1CCCCC1)C(C)(C)C)C(=O)C(=O)NC1CC1 | 235 nM | 838 nM | > 74000 nM | > 315 |  |  |  |  |  | 720 nM |  | 
CC(=O)CC[C@H]1C(=O)N[C@@H](C(C)C)C(=O)N[C@@H](Cc2cccc(O)c2)C(=O)N2CCCC(N2)C(=O)O[C@H](/C(C)=C/C=C/C(=O)Nc2ccc(-c3ccccc3)cc2)C/C=C/C=C/[C@H](O)[C@H](C)[C@H]1O (stereo in doubt) | 208 nM | 1150 nM | > 100000 nM | > 481 | 520 nM | 2 µM (≈ 1.86 µg/mL) | 2.3 min | > 240 min | 1.3 min |  |  | 
CCN(CC)C(=O)/C=C/C=C(\C)[C@@H]1C/C=C/C=C/[C@H](O)[C@H](C)[C@@H](O)[C@@H](CCC(C)=O)C(=O)N[C@@H](C(C)C)C(=O)N[C@@H](Cc2cccc(O)c2)C(=O)N2CCCC(N2)C(=O)O1 (some centres undefined) | 204 nM | 1200 nM | > 100000 nM | > 490 | 350 nM | > 100 µM | 16.8 min | 94 min | 8.4 min |  |  | 
CNC(=O)/C=C/C=C(\C)[C@@H]1C/C=C/C=C/[C@H](O)[C@H](C)[C@@H](O)[C@@H](CCC(C)=O)C(=O)N[C@@H](C(C)C)C(=O)N[C@@H](Cc2cccc(O)c2)C(=O)N2CCCC(N2)C(=O)O1 (stereo in doubt) | 8000 nM | 60200 nM | > 100000 nM | > 13 | 500 nM | > 100 µM | 37.2 min | 192 min | 22.5 min |  |  | 
C/C=C/C[C@@H](C)[C@@H](O)[C@H]1C(=O)N[C@@H](CC)C(=O)N(C)CC(=O)N(C)[C@@H](CC(C)C)C(=O)N[C@@H](C(C)C)C(=O)N(C)[C@@H](CC(C)C)C(=O)N[C@@H](C)C(=O)N[C@H](C)C(=O)N(C)[C@@H](CC(C)C)C(=O)N(C)[C@@H](CC(C)C)C(=O)N(C)[C@@H](C(C)C)C(=O)N1C [CYCLOSPORINE] | 306 nM | 1000 nM |  |  |  |  |  |  |  | 137 nM | 198 nM | 455 nM
CC(=O)CC[C@H]1C(=O)N[C@@H](C(C)C)C(=O)N[C@@H](Cc2cccc(O)c2)C(=O)N2CCCC(N2)C(=O)O[C@H](/C(C)=C/C=C/C(=O)NC2CCCCC2)C/C=C/C=C/[C@H](O)[C@H](C)[C@H]1O (stereo in doubt) | 336 nM | 4230 nM | > 100000 nM | > 298 | 450 nM | 29 µM (≈ 25 µg/mL) | 6.5 min | > 240 min | 2.7 min |  |  | 
